From publication PMC8869358, “High-Throughput Chemical Screening and Structure-Based Models to Predict hERG Inhibition” (Biology, 2022)
Structures can show the parent of a compound that is named as a salt.

Molecular target: hERG (Homo sapiens, UniProt Q12809)
Assay: cell-based
Details: (-LOG10(IC50), µM)

Sequence of hERG (Q12809 whole entry): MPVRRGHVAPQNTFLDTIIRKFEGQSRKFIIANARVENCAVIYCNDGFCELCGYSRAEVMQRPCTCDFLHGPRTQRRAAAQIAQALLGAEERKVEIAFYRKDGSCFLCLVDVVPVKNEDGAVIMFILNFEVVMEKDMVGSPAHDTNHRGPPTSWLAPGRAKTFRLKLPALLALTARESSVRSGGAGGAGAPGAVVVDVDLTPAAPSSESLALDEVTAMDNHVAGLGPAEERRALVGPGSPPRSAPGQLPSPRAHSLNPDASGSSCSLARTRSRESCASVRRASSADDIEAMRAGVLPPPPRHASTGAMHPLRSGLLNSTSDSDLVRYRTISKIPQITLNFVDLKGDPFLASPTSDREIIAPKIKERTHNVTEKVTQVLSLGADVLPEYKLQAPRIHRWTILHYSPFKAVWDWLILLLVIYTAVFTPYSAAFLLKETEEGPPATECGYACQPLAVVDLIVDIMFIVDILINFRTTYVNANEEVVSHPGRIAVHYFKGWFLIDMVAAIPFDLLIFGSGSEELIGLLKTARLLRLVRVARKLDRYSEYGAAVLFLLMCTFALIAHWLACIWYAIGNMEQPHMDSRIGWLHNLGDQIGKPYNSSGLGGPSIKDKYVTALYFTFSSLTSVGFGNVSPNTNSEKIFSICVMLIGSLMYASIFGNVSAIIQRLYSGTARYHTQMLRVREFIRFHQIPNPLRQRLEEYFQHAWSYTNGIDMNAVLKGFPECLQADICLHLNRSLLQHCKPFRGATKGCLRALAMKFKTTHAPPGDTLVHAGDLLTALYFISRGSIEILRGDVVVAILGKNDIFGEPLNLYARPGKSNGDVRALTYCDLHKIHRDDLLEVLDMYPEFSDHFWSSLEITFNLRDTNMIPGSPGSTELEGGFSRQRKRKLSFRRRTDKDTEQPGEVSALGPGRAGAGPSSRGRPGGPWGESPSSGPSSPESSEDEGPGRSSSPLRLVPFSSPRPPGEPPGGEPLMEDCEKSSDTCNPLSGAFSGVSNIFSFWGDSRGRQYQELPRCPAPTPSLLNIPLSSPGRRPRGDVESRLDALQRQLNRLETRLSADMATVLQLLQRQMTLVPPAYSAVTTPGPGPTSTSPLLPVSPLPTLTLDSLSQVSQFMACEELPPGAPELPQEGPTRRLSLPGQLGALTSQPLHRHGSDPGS

Compound: CCCCC(CC)COCCCN (stereo not drawn) [3-((2-Ethylhexyl)oxy)propylamine]
- IC50: 35.6 µM

Compound: N#CC(C#N)=NNc1cccc(Cl)c1 [Carbonyl cyanide chlorophenylhydrazone]
- IC50: 36 µM

Compound: COC(=O)C1=C(C)NC(COC(N)=O)=C(C(=O)OC(C)C)C1c1cccc(Cl)c1Cl (stereo not drawn) [Lemildipine]
- IC50: 23.9 µM

Compound: CC1=CC(=O)c2ccccc2C1=O [Menadione]
- IC50: 7.28 µM

Compound: COC(=O)C1=C(C)NC(C)=C(C(=O)OCCN2CCN(C(c3ccccc3)c3ccccc3)CC2)C1c1cccc([N+](=O)[O-])c1 (stereo not drawn) [Manidipine dihydrochloride]
- IC50: 7 µM

Compound: CCOP(=S)(OCC)SCn1c(=O)oc2cc(Cl)ccc21 [Phosalone]
- IC50: 23.5 µM

Compound: CCCCCCCCCCCCCCNCCO [Myralact]
- IC50: 12.5 µM

Compound: CCCCCCCCCC[N+](C)(CCCCCCCCCC)CCC[Si](OC)(OC)OC [Didecylmethyl(3-(trimethoxysilyl)propyl)ammonium chloride]
- IC50: 2.65 µM

Compound: CCCCCCCCC=CCCCCCCCC1=NCCN1CCO [2-(8-Heptadecenyl)-2-imidazoline-1-ethanol]
- IC50: 11.8 µM

Compound: CC(C)(COC(=O)c1ccccc1)COC(=O)c1ccccc1 [Neopentyl glycol dibenzoate]
- IC50: 13.8 µM

Compound: COc1ccc2cc1Oc1ccc(cc1)C[C@H]1c3c(cc4c(c3Oc3cc5c(cc3OC)CCN(C)[C@@H]5C2)OCO4)CCN1C [Cepharanthine]
- IC50: 10.3 µM

Compound: CCC(C)(C)c1ccc(CC(C)CN2C[C@@H](C)O[C@@H](C)C2)cc1 (stereo partly drawn) [Amorolfine]
- IC50: 9.16 µM

Compound: C[N+]1(C)CCC(=C(c2ccccc2)c2ccccc2)CC1 [Diphemanil methylsulfate]
- IC50: 6.24 µM

Compound: O=C1CCCCCCCCCCOCCCCO1 [12-Oxahexadecanolide]
- IC50: 49 µM

Compound: CCCC[P+](CCCC)(CCCC)CCCC [Tetrabutylphosphonium bromide]
- IC50: 16 µM

Compound: CCOC(=O)c1c(N)sc2c1CCN(Cc1ccccc1)C2 [Tinoridine]
- IC50: 21.3 µM

Compound: CNCCCC1c2ccccc2C=Cc2ccccc21 [Protriptyline hydrochloride]
- IC50: 23.9 µM

Compound: O=C(CCN1CCC(c2ccccc2)C1)c1ccc2c(c1)OCCO2 (stereo not drawn) [Proroxan]
- IC50: 17.6 µM

Compound: ClC1=C(Cl)C2(Cl)C3C(Cl)C(Cl)CC3C1(Cl)C2(Cl)Cl (stereo not drawn) [Chlordane]
- IC50: 30.9 µM

Compound: CCCC[C@H]1CN(CC2CCOCC2)C(=O)OC12CCN(C1(C)CCN(C(=O)c3c(C)ncnc3C)CC1)CC2 [PharmaGSID_48521]
- IC50: 13.6 µM

Compound: CCOCn1c(-c2ccc(Cl)cc2)c(C#N)c(Br)c1C(F)(F)F [Chlorfenapyr]
- IC50: 15.5 µM

Compound: CC(C)(C)c1cc(C(C)(C)C)c(O)c(C(C)(C)C)c1 [2,4,6-Tris(tert-butyl)phenol]
- IC50: 17.4 µM

Compound: N#CC1(N=NC2(C#N)CCCCC2)CCCCC1 [1,1'-Diazene-1,2-diyldicyclohexanecarbonitrile]
- IC50: 43.6 µM

Compound: CN1C(=O)N(c2ccccc2Br)Cc2cnc(Nc3ccc4c(c3)OCC(CO)O4)nc21 (stereo not drawn) [PharmaGSID_48519]
- IC50: 43.6 µM

Compound: CCCCCC(C)OC(=O)COc1ccc(Cl)c2cccnc12 (stereo not drawn) [Cloquintocet-mexyl]
- IC50: 16.1 µM

Compound: CCOC(=O)COc1cc(-c2nn(C)c(OC(F)F)c2Cl)c(F)cc1Cl [Pyraflufen-ethyl]
- IC50: 33.4 µM

Compound: CCCCCCCC[S+]([O-])C(C)Cc1ccc2c(c1)OCO2 (stereo not drawn) [Piperonyl sulfoxide]
- IC50: 38.2 µM

Compound: CCCCOCCOC(=O)c1ccccc1C(=O)OCCOCCCC [Bis(2-butoxyethyl) phthalate]
- IC50: 20.2 µM

Compound: CN1CCN(C2Cc3ccccc3Sc3ccc(Cl)cc32)CC1 (stereo not drawn) [Octoclothepine maleate]
- IC50: 0.849 µM

Compound: c1cc(CN2CCCCC2)cc(OCCCNc2nc3ccccc3s2)c1 [Zolantidine dimaleate]
- IC50: 9.16 µM

Compound: O=C1CCCCCCCCCCCCCC1 [Cyclopentadecanone]
- IC50: 24.5 µM

Compound: O=C1C=CC(=O)c2ccccc21 [1,4-Naphthoquinone]
- IC50: 21 µM

Compound: Cc1nc2ccccn2c(=O)c1CCN1CCC(C(=O)c2ccc(F)cc2)CC1 [Pirenperone]
- IC50: 6.74 µM

Compound: CCCCCC[n+]1ccn(C)c1.O=S(=O)([N-]S(=O)(=O)C(F)(F)F)C(F)(F)F [1-Hexyl-3-methylimidazolium bis(trifluoromethylsulfonyl)imide]
- IC50: 45.4 µM

Compound: CC(C)C(=O)OCc1cccc(OC(=O)[C@@H]2N3C(=O)[C@@H](NC(=O)Cc4ccccc4)[C@H]3SC2(C)C)c1 [Tobicillin]
- IC50: 20.5 µM

Compound: CCCCCCCC[n+]1ccn(C)c1 [1-Methyl-3-octylimidazolium hexafluorophosphate]
- IC50: 17.6 µM

Compound: CCCCCCCCCCn1cc[n+](C)c1 [1-Decyl-3-methylimidazolium trifluoromethanesulfonate]
- IC50: 13.6 µM

Compound: CCCCOc1ccc(C(=O)CCN2CCCCC2)cc1 [Dyclonine hydrochloride]
- IC50: 20.1 µM

Compound: CCOP(=S)(Oc1cnc(C(C)(C)C)nc1)OC(C)C (stereo not drawn) [Tebupirimfos]
- IC50: 43.6 µM

Compound: CCOC(=O)COc1cc(-n2ncc(C(F)(F)F)c(C)c2=O)c(F)cc1Cl [Flufenpyr-ethyl]
- IC50: 30.9 µM

Compound: O=C(CCCN1CCC2(CC1)C(=O)NCN2c1ccccc1)c1ccc(F)cc1 [Spiperone]
- IC50: 1.76 µM

Compound: CN1C(=O)[C@@H](NC(=O)c2cc3ccccc3[nH]2)N=C(c2ccccc2)c2ccccc21 [Devazepide]
- IC50: 9.52 µM

Compound: CCOP(=S)(OCC)Oc1ccc2c(C)c(Cl)c(=O)oc2c1 [Coumaphos]
- IC50: 40.4 µM

Compound: CCCCOc1cc(C(=O)NCCN(CC)CC)c2ccccc2n1 [Dibucaine]
- IC50: 6.74 µM

Compound: OC(c1ccc(Cl)cc1)(c1ccc(Cl)cc1)C(Cl)(Cl)Cl [Dicofol]
- IC50: 30.9 µM

Compound: N#C/C(=C1/SC[C@@H](c2ccc(Cl)cc2Cl)S1)n1ccnc1 [Luliconazole]
- IC50: 3.13 µM

Compound: CCCCCCCCCCCCCC[n+]1ccccc1 [Tetradecylpyridinium bromide]
- IC50: 5.49 µM

Compound: CCCN(CCC)C(=O)CN [C.I. Solvent Black 5]
- IC50: 9.21 µM

Compound: COc1ccc(CN2CCN(C(c3ccc(F)cc3)c3ccc(F)cc3)CC2)c(OC)c1OC [Lomerizine dihydrochloride]
- IC50: 0.849 µM

Compound: CCCCCCCCCc1ccc(O)cc1 [4-Nonylphenol, branched]
- IC50: 34.3 µM

Compound: CCCCNc1ccc(C(=O)OCCN(CC)CC)cc1 [Depolipon]
- IC50: 19 µM

Compound: c1ccc(-c2ccc(C(c3ccccc3)n3ccnc3)cc2)cc1 (stereo not drawn) [Bifonazole]
- IC50: 12.5 µM

Compound: CCCCCCCCCCCCCCN(CCO)CCO [2,2'-(Tetradecylimino)diethanol]
- IC50: 16.1 µM

Compound: COc1ccccc1N1CCN(CC(O)COc2cccc3ccccc23)CC1 (stereo not drawn) [Naftopidil]
- IC50: 1.69 µM

Compound: CCN(C(=O)c1cc(C)cc(OC[C@H](C)Nc2ccncc2)c1)C(C)C [GW473178E methyl benzene sulphonic acid]
- IC50: 15.9 µM

Compound: CC(=O)O[C@@H]1CC2C3CCc4cc(OC(=O)c5ccccc5)ccc4C3CCC2(C)[C@H]1OC(C)=O (stereo partly drawn) [Estriol benzoate diacetate]
- IC50: 5.35 µM

Compound: CCN(CC)c1nc(C)cc(OP(=S)(OC)OC)n1 [Pirimiphos-methyl]
- IC50: 50.9 µM

Compound: CCCCCCCCCCCCCC[N+](C)(C)Cc1ccccc1 [Benzyldimethyltetradecylammonium chloride dihydrate]
- IC50: 2.05 µM

Compound: CN1Cc2c(N)cccc2C(c2ccccc2)C1 (stereo not drawn) [Nomifensine]
- IC50: 38.9 µM

Compound: Cl[C@H]1[C@H](Cl)[C@@H](Cl)[C@H](Cl)[C@@H](Cl)[C@H]1Cl [delta-Hexachlorocyclohexane]
- IC50: 51.9 µM

Compound: COC(=O)C1=C(C)NC(C)=C(C(=O)O[C@@H]2CCCN(Cc3ccccc3)C2)[C@@H]1c1cccc([N+](=O)[O-])c1 (racemic) [rac Benidipine hydrochloride]
- IC50: 12.5 µM

Compound: CN1CCN(c2ccccc2/C=C2\SCCN(c3ccc(Cl)c(Cl)c3)C2=O)CC1 [Elzasonan]
- IC50: 1.61 µM

Compound: CCOC(=O)O[C@H](C)OC(=O)c1ccc2c(c1)cc(C(=O)NC1CCN(C(C)C)CC1)n2Cc1cc(-c2ccc(Cl)s2)on1 [AVE6324]
- IC50: 8.14 µM

Compound: CC(=O)c1ccc2c(c1)N(CCCN(C)C)c1ccccc1S2 [Acetopromazine maleate]
- IC50: 15.1 µM

Compound: Cc1c(OCC(F)(F)F)ccnc1C[S+]([O-])c1nc2ccccc2[nH]1 (stereo not drawn) [Lansoprazole]
- IC50: 43.6 µM

Compound: Clc1nc(C(Cl)(Cl)Cl)c(Cl)c(Cl)c1Cl [2,3,4,5-Tetrachloro-6-(trichloromethyl)pyridine]
- IC50: 49 µM

Compound: COC(=O)[C@H]1[C@H]2C[C@@H]3c4[nH]c5cc(OC)ccc5c4CCN3C[C@H]2C[C@@H](OC(=O)c2cc(OC)c(OC)c(OC)c2)[C@@H]1OC [Reserpine]
- IC50: 9.16 µM

Compound: CC(C)(C)c1cccc(C(C)(C)C)c1O [2,6-Di-tert-butylphenol]
- IC50: 19.8 µM

Compound: C[Si](Cn1cncn1)(c1ccc(F)cc1)c1ccc(F)cc1 [Flusilazole]
- IC50: 40.2 µM

Compound: CCCCOCCOC(=O)COc1nc(Cl)c(Cl)cc1Cl [Triclopyr butotyl]
- IC50: 34.7 µM

Compound: O=C(Oc1ccccc1)c1ccccc1C(=O)Oc1ccccc1 [Diphenyl phthalate]
- IC50: 15.5 µM

Compound: CCCCCCCCCCn1cc[n+](C)c1 [1-Decyl-3-methylimidazolium bromide]
- IC50: 15 µM

Compound: c1ccc(Nc2cccc3ccccc23)cc1 [N-Phenyl-1-naphthylamine]
- IC50: 33.4 µM

Compound: Clc1ccc(C(c2ccccc2Cl)C(Cl)(Cl)Cl)cc1 (stereo not drawn) [o,p'-DDT]
- IC50: 21.5 µM

Compound: NC(=O)N(O)[C@@H]1C=C[C@H](Oc2cccc(Oc3ccc(F)cc3)c2)C1 [CJ-013790]
- IC50: 38.9 µM

Compound: CC(C)CC(C)N(c1ccccc1)c1ccc(N)cc1 (stereo not drawn) [N-(4-Methylpentan-2-yl)-N-phenylbenzene-1,4-diamine]
- IC50: 27.5 µM

Compound: CC(=O)NC1(c2cccc(F)c2)CCN(CC[C@@]2(c3ccc(Cl)c(Cl)c3)CN(c3ccccc3)C(=O)CO2)CC1 [SAR102779]
- IC50: 9.08 µM

Compound: CC(CCc1ccccc1)NC(C)C(O)c1ccc(O)cc1 (stereo not drawn) [Nylidrin]
- IC50: 5.56 µM

Compound: CCOc1cc(Oc2ccc(C(F)(F)F)cc2Cl)ccc1[N+](=O)[O-] [Oxyfluorfen]
- IC50: 21.9 µM

Compound: CCOc1cc(C(C)(C)C)ccc1C1COC(c2c(F)cccc2F)=N1 (stereo not drawn) [Etoxazole]
- IC50: 13.8 µM

Compound: Oc1ccc(Cl)cc1Cc1cc(Cl)ccc1O [Dichlorophen]
- IC50: 27 µM

Compound: O=C1NCN(c2ccccc2)C12CCN(CCCOc1ccc(F)cc1)CC2 [AMI-193]
- IC50: 0.786 µM

Compound: CCCCCCCC[n+]1ccn(C)c1 [1-Methyl-3-octylimidazolium trifluoromethanesulfonate]
- IC50: 21.2 µM

Compound: c1ccc(CSCc2ccccc2)cc1 [Benzyl sulfide]
- IC50: 47 µM
